Experimental data: patent US9314540B2, “Compounds for use in imaging, diagnosing and/or treatment of diseases of the central nervous system” (PIRAMAL IMAGING SA, priority 2010, dated 2016)

How the values were obtained:
[1] = target: T1, human MAO-B (Homo sapiens, UniProt P27338); experiment: Amplex Red Monoamine Oxidase Assay-Kit, MAO-B affinity; type: biochemical; details: human MAO-B from baculovirus-infected insect cells; read-out: affinity towards MAO-B, IC50
T1 construct: purchased Sigma; host or cells: insect cells infected with recombinant baculovirus
T1 sequence (P27338 1-520): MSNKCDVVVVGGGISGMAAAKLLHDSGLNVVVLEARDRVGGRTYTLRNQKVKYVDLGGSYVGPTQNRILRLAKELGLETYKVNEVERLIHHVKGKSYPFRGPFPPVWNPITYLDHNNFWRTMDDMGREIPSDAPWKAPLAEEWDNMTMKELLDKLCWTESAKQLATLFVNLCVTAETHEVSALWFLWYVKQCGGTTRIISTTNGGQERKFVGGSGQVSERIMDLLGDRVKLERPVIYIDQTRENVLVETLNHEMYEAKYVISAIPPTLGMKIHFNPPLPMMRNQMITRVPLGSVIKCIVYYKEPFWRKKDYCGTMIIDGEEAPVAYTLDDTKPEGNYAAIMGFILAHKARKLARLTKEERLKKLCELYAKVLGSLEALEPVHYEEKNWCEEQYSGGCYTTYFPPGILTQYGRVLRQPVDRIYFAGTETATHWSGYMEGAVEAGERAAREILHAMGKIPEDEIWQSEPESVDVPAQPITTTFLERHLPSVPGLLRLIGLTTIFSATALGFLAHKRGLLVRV
Description: [^19F] […] This was determined by incubating human MAO-B prepared from insect cells infected with recombinant baculovirus containing respective cDNA inserts (Sigma) with respective reagents of the Amplex Red Monoamine Oxidase Assay-Kit (Molecular Probes).

[2] = target: T2, MAO-A (Homo sapiens, UniProt P21397); experiment: Amplex Red Monoamine Oxidase Assay-Kit, MAO-A affinity; type: biochemical; details: read-out: affinity towards MAO-A
T2 sequence (P21397 1-527): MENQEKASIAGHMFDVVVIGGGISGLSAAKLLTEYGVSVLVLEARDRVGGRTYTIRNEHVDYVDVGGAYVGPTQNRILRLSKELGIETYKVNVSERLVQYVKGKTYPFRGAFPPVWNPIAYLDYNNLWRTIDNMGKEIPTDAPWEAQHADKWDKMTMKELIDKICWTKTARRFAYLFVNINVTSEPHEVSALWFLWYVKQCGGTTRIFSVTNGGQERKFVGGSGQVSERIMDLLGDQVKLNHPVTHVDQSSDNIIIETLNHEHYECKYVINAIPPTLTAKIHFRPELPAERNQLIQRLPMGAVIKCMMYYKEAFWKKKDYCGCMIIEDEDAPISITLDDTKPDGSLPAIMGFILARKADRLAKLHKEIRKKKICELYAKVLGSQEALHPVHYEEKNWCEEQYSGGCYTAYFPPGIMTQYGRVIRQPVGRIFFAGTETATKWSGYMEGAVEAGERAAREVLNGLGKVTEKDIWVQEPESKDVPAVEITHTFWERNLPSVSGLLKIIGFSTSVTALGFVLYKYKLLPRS

[3] = In vitro metabolite profile in liver microsomes and hepatocytes (LC/MS); type: in vitro ADME, rat, mouse and human; details: for oxidation at the propargyl moiety (M-7) as additional metabolic pathway: microsome and hepatocyte incubations; for major metabolic pathway: rat, mouse and human liver microsomes, human and rat hepatocytes
From the text: FIG. 9: In vitro metabolite pathways in rat, mouse, dog, monkey and human microsomes and rat and human heaptocyte preparations. The metabolites were detected by LC/MS. (a) Metabolite pathways of non-deuterated [^18F] Deprenyl and (b) Metabolite pathways of [^18F] D2 Deprenyl.
[^18F] D2 Deprenyl and [^19F] D2 Deprenyl have been investigated regarding their metabolic properties in vitro and in vivo. […] D2 Deprenyl (FIG. 9).

[4] = Biodistribution in NMRI mice, brain radioactivity by gamma counter; type: in vivo; details: for brain uptake of radioactivity (peak): 2 min p.i.
Description: FIG. 1: Distribution of [^18F] D2 Deprenyl (compound of Example 3) detected via a gamma-detector is shown in a time frame of 4 hours in mouse brains (n=3).
Biodistribution of [^18F] D2 Deprenyl (compound of Example 3) was investigated in NMRI mice weighing 31.1-38.5 g at seven time points. For each time point 3 mice were used. The mice were injected each with 0.256 MBq [^18F] D2 Deprenyl. After the respective time points the mice were sacrificed, the organs taken out and measured in a gamma counter. The results were decay corrected. […] Unexpectedly, the elimination ratio defined by peak uptake at 2 min to uptake at 30 min was 4.2 times. This is improved over the non-deuterated compound where said ratio was 3.6 (Peak: 7.5±0.04% ID/g at 2 min p.i. and 2.10±0.33% ID/g at 30 min p.i.) and will add to a better brain image quality. Therefore, an improved diagnostic performance can be expected.

[5] = Plasma radioactivity and metabolite profile over time in cynomolgus monkey plasma; type: in vivo
From the text: D2 Deprenyl and non-deuterated [^18F] Deprenyl in cynomolgus monkey plasma.
D2 Deprenyl and (b) non-deuterated [^18F] Deprenyl in cynomolgus monkey plasma. The time course of the parent compounds as well as metabolites expressed in [area %] generated from respective HPLC chromatograms are shown.
Plasma radioactivity metabolic profiles have been monitored over time for [^18F] D2 Deprenyl compared to the non-deuterated [^18F] Deprenyl in cynomolgus monkey plasma (FIG. 3). […] D2 Deprenyl in plasma the radioactivity for [^18F] D2 Deprenyl was 18% and 31% higher as observed for [^18F] Deprenyl at the 30 and 60 min time points, respectively (FIG. 3). In addition, metabolites occurring in cynomolgus monkey plasma over time have been monitored for both ligands (FIG. 4). […] Deprenyl. Specifically metabolite M1 was less produced (FIG. 4a). In addition, time activity curves (TAC) of [^18F] […] This gives more flexibility regarding quantification of the PET data and is, thus, an advantage.

SMILES	IC50 [1] [nM]	IC50 [2] [nM]	oxidation at the propargyl moiety (M-7) as additional metabolic pathway [3]	major metabolic pathway [3]	elimination ratio, peak uptake at 2 min to uptake at 30 min [4]	brain uptake of radioactivity (peak) [4] [% ID/g]	brain radioactivity ([4]; 30 min p.i.) [% ID/g]	brain radioactivity ([4]; 4 hours p.i.) [% ID/g]	formation of metabolite M1 compared to non-deuterated [18F] Deprenyl [5]	stability in plasma compared to non-deuterated [18F] Deprenyl [5]	plasma radioactivity higher than for [18F] Deprenyl ([5]; 30 min) [%]	plasma radioactivity higher than for [18F] Deprenyl ([5]; 60 min) [%]
[2H]C([2H])(C#C)N(C)[C@H](CF)Cc1ccccc1 [[^19F] D2 Deprenyl, N-[(2S)-1-fluoro-3-phenylpropan-2-yl]-N-methyl(1,1-^2H)prop-2-yn-1-amine]	41.3	> 2000	not detectable any more	N-dealkylation								
C#CCN(C)[C@H](C[18F])Cc1ccccc1 [non-deuterated compound, reference compound]			observed	N-dealkylation	3.6	7.5±0.04	2.10±0.33					
[2H]C([2H])(C#C)N(C)[C@H](CF)Cc1ccccc1 [[^18F] D2 Deprenyl, N-[(2S)-1-[^18F]fluoro-3-phenylpropan-2-yl]-N-methyl(1,1-^2H2)— prop-2-yn-1-amine]					4.2	6.03±1.09	1.44±0.15	0.91±0.09	less produced	more stable	18	31
